Data: patent US11352340B2, “Pyridine and pyridimine compounds as PI3K-gamma inhibitors” (Incyte Corporation, priority 2016, dated 2022)
Counter-ions that a name gives are not always drawn.

How the values were obtained:
[1] = molecular target: PI3Kδ (p110δ/p85α) Recombinant Human Protein (Homo sapiens (Human), UniProt O00329); assay: PI3Kδ Scintillation Proximity Assay; type: biochemical; details: read-out: PI3K-delta SPA IC50
In short: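 Kinase reaction run at room temperature in 20 mM MOPS pH 6.7, 10 mM MgCl2, 5 mM DTT, 0.03% CHAPS with 20 μM PIP2, 2 μM ATP plus [γ-33P]ATP, 3.4 nM enzyme, 2% DMSO; 120 min. Quenched with WGA SPA beads/EDTA, counted by scintillation; IC50 from % solvent-control activity vs log concentration.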

[2] = molecular target: PI3Kγ (p110γ) Recombinant Human Protein (Homo sapiens (Human), UniProt P48736); assay: PI3K-γ Scintillation Proximity Assay; type: biochemical; details: read-out: PI3K-gamma SPA IC50
PI3Kγ (p110γ) Recombinant Human Protein, sequence (P48736 whole entry): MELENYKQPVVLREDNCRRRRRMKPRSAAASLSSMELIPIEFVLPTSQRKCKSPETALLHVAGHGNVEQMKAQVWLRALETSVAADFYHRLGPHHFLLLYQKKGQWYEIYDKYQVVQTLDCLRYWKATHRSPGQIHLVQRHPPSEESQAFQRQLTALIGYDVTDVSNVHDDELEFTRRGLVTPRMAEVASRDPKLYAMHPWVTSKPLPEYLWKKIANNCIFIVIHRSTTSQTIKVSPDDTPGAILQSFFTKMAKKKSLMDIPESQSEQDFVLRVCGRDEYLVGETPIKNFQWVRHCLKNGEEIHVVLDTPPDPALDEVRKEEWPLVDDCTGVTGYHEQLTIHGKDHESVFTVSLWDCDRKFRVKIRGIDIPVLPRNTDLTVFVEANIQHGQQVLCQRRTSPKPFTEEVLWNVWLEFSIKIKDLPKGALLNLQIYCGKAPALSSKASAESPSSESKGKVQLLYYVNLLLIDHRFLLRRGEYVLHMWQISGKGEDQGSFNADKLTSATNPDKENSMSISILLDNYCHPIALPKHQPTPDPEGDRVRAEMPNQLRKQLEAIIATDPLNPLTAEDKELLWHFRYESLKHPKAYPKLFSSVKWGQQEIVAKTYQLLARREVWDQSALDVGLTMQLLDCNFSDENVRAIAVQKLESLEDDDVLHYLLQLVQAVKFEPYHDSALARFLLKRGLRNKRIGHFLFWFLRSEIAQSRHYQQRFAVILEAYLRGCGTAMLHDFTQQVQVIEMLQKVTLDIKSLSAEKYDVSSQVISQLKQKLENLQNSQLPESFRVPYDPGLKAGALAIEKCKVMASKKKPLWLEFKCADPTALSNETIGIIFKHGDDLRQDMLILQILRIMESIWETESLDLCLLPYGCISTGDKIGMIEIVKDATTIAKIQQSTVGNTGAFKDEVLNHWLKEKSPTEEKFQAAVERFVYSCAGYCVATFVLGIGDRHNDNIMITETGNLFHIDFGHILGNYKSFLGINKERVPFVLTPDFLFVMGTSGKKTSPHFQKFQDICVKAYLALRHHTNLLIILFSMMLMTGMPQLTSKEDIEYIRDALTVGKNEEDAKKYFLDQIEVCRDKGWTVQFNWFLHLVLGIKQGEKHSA
In short: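 Recombinant human p110γ (13 nM) with 20 μM PIP2 and 2 μM ATP plus 0.5 μCi [γ-33P]ATP in 20 mM MOPS pH 6.7, 10 mM MgCl2, 5 mM DTT, 0.03% CHAPS, 2% DMSO, 120 min at room temperature. Product captured on WGA SPA beads and counted; IC50 fitted from % of solvent control versus log concentration.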

[3] = test system: Phosphorylated Ribosomal Protein S6 (RPS6) in THP-1 cells; assay: THP-1 RPS6 ELISA Assay; type: cell-based, Human; details: Homo sapiens, MCP-1 stimulated, phospho-RPS6 ELISA, read-out: THP p-RPS6 ELISA IC50
Description: Example A. THP-1 RPS6 ELISA Assay
To measure the Phosphorylated Ribosomal Protein S6 (RPS6) in cell lysates, THP-1 cells (Human Acute Monocytic Leukemia) are purchased from ATCC (Manassas, Va.) and maintained in RPMI with 10% FBS (Gibco/Life Technologies, Carlsbad, Calif.). For the assay, THP-1 cells are serum starved overnight in RPMI, then plated in RPMI (2×10^5 cells/well in 90 μL) into 96-well flat-bottom tissue culture treated plates (Corning, Corning, N.Y.), in the presence or absence of a concentration range of test compounds. Covered plates are incubated for 2 hours at 37° C., 5% CO2 then treated with or without 10 nM MCP-1 (MYBioSource, San Diego, Calif.) for 15 minutes at 37° C., 5% CO2. Plates are centrifuged at 1600 RPM and supernatants are removed. Cells are lysed in Lysis Buffer (Cell Signaling, Danvers, Mass.) with Protease Inhibitor (Calbiochem/EMD, Germany), PMSF (Sigma, St Louis Mo.), HALTS (Thermo Fisher, Rockford, Ill.) for 30 min on wet ice. Cell lysates are frozen at −80° C. before testing. The lysates are tested in the Human/Mouse/Rat Phospho-RPS6 ELISA (R&D Systems, Inc. Minn, Minn.). The plate is measured using a microplate reader (SpectraMax M5—Molecular Devices, LLC Sunnyvale, Calif.) set to 450 nm with a wavelength correction of 540. IC50 determination is performed by fitting the curve of inhibitor percent inhibition versus the log of the inhibitor concentration using the GraphPad Prism 5.0 software.

PI3Kδ (p110δ/p85α) Recombinant Human Protein, sequence (O00329 whole entry): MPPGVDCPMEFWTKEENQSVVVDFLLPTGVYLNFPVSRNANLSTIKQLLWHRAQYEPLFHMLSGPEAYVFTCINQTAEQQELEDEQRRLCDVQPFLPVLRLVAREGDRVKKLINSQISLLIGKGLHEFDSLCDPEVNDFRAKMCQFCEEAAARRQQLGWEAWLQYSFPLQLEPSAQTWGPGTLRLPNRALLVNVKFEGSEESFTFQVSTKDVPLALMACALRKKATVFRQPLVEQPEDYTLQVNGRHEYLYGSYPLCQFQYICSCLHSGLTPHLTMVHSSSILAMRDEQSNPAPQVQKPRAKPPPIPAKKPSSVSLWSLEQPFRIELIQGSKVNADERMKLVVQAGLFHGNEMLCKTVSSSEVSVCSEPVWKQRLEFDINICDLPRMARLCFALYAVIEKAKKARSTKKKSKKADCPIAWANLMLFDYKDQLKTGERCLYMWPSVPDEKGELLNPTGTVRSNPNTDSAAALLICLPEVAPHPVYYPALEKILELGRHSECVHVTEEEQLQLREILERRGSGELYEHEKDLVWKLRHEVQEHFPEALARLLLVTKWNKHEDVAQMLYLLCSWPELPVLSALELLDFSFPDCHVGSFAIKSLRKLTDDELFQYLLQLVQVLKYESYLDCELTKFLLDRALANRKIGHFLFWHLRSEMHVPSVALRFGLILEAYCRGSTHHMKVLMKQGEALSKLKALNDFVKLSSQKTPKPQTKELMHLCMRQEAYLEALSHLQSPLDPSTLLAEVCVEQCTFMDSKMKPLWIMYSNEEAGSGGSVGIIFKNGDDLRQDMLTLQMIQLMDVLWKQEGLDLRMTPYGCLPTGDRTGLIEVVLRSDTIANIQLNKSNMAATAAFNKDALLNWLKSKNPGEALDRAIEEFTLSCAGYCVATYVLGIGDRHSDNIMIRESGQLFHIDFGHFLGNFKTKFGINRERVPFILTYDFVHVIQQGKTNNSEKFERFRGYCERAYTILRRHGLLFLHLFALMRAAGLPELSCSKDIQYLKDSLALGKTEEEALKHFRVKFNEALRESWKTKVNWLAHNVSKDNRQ
PI3Kδ (p110δ/p85α) Recombinant Human Protein, sequence (P27986 whole entry partner): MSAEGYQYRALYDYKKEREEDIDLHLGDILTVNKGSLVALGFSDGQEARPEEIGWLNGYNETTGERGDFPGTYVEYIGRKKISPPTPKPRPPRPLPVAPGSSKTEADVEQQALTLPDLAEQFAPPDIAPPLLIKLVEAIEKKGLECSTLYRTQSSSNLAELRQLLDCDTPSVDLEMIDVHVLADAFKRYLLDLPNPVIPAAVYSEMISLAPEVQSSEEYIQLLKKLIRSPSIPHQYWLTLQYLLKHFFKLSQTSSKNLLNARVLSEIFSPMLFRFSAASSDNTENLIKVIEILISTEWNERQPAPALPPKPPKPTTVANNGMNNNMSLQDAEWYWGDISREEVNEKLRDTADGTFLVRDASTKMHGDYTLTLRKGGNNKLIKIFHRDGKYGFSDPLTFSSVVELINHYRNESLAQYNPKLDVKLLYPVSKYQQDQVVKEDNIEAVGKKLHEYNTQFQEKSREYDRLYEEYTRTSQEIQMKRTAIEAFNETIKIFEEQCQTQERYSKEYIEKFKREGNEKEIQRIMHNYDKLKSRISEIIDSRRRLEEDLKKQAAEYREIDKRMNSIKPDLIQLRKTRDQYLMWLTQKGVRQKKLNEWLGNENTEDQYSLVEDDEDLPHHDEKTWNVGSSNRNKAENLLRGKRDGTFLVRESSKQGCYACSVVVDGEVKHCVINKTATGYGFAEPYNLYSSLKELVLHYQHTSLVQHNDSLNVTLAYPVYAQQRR

Row | Structure (SMILES) | IC50 [1] [nM] | IC50 [2] [nM] | IC50 [3] [nM]
1 | Cc1nc(-c2cc(-c3cncc(NCC4CCOC4)c3)ccn2)[nH]c1C (racemic) [Example 145B, 2′-(4,5-Dimethyl-1H-imidazol-2-yl)-N-(tetrahydrofuran-3-ylmethyl)-3,4′-bipyridin-5-amine] | ≤ 50 | ≤ 50 | ≤ 300
2 | Cc1nc(-c2cc(-c3cncc(NC(C)c4ccccc4)c3)ccn2)[nH]c1C (racemic) [Example 145C, 2′-(4,5-Dimethyl-1H-imidazol-2-yl)-N-(1-phenylethyl)-3,4′-bipyridin-5-amine trifluoroacetate salt] | ≤ 50 | ≤ 50 | ≤ 300
3 | Cc1nc(-c2cc(-c3cncc(C(=O)N4CCCC(O)C4)c3)ccn2)[nH]c1C (racemic) [Example 154, (2′-(4,5-Dimethyl-1H-imidazol-2-yl)-3,4′-bipyridin-5-yl)(3-hydroxypiperidin-1-yl)methanone] | ≤ 100 | ≤ 50 | 300 to 1000
4 | Cc1nc(-c2cc(-c3cncc(C(=O)N4CCC(CCO)C4)c3)ccn2)[nH]c1C (racemic) [Example 169, (2′-(4,5-Dimethyl-1H-imidazol-2-yl)-3,4′-bipyridin-5-yl)(3-(2-hydroxyethyl)pyrrolidin-1-yl)methanone] | ≤ 50 | ≤ 100 | 1000 to 5000
5 | COC1CCN(C(=O)c2cncc(-c3ccnc(-c4nc(C)c(C)[nH]4)c3)c2)C1 (racemic) [Example 174, 2′-(4,5-Dimethyl-1H-imidazol-2-yl)-5-[(3-methoxypyrrolidin-1-yl)carbonyl]-3,4′-bipyridine trifluoroacetate salt] | ≤ 50 | ≤ 50 | ≤ 300
6 | Cc1[nH]c(-c2cc(-c3cncc(N4CCOCC4)c3)ccn2)nc1C(=O)N(C)C(C)C [Example 259, N-Isopropyl-N,5-dimethyl-2-(5-morpholin-4-yl-3,4′-bipyridin-2′-yl)-1H-imidazole-4-carboxamide] | ≤ 500 | ≤ 500 | –
7 | CCN(C)C(=O)c1nc(-c2cc(-c3cncc(N4CCOCC4)c3)ccn2)[nH]c1C [Example 260, N-Ethyl-N,5-dimethyl-2-(5-morpholin-4-yl-3,4′-bipyridin-2′-yl)-1H-imidazole-4-carboxamide] | ≤ 500 | ≤ 500 | –
8 | COC1CN(C(=O)c2nc(-c3cc(-c4cncc(N5CCOCC5)c4)ccn3)[nH]c2C)C1 [Example 263, 2′-{4-[(3-Methoxyazetidin-1-yl)carbonyl]-5-methyl-1H-imidazol-2-yl}-5-morpholin-4-yl-3,4′-bipyridine] | ≤ 50 | ≤ 100 | –
9 | Cc1[nH]c(-c2cc(-c3cncc(N4CCOCC4)c3)ccn2)nc1C(=O)N[C@@H]1CCN(Cc2ccccc2)C1 [Example 280, N-[(3R)-1-Benzylpyrrolidin-3-yl]-5-methyl-2-(5-morpholin-4-yl-3,4′-bipyridin-2′-yl)-1H-imidazole-4-carboxamide trifluoroacetate salt] | ≤ 50 | ≤ 500 | –
10 | Cc1[nH]c(-c2cc(-c3cncc(N4CCOCC4)c3)ccn2)nc1CNC1CCOCC1 [Example 283, N-{[5-Methyl-2-(5-morpholin-4-yl-3,4′-bipyridin-2′-yl)-1H-imidazol-4-yl]methyl}tetrahydro-2H-pyran-4-amine] | ≤ 100 | > 500 | –
11 | Cc1[nH]c(-c2cc(-c3cncc(N4CCOCC4)c3)ccn2)nc1CNC1CCCC1 [Example 284, N-{[5-Methyl-2-(5-morpholin-4-yl-3,4′-bipyridin-2′-yl)-1H-imidazol-4-yl]methyl}cyclopentanamine] | ≤ 100 | > 500 | –
12 | Cc1[nH]c(-c2cc(-c3cncc(N4CCOCC4)c3)ccn2)nc1CNC(C)C [Example 285, N-{[5-Methyl-2-(5-morpholin-4-yl-3,4′-bipyridin-2′-yl)-1H-imidazol-4-yl]methyl}propan-2-amine] | ≤ 500 | > 500 | –
13 | Cc1[nH]c(-c2cc(-c3cncc(N4CCOCC4)c3)ccn2)nc1CN[C@H]1CCOC1 [Example 286, (3S)-N-{[5-Methyl-2-(5-morpholin-4-yl-3,4′-bipyridin-2′-yl)-1H-imidazol-4-yl]methyl}tetrahydrofuran-3-amine] | ≤ 500 | > 500 | –
14 | Cc1[nH]c(-c2cc(-c3cncc(N4CCOCC4)c3)ccn2)nc1CN[C@@H]1CCOC1 [Example 287, (3R)-N-{[5-Methyl-2-(5-morpholin-4-yl-3,4′-bipyridin-2′-yl)-1H-imidazol-4-yl]methyl}tetrahydrofuran-3-amine] | ≤ 500 | > 500 | –
15 | CNCc1nc(-c2cc(-c3cncc(N4CCOCC4)c3)ccn2)[nH]c1C [Example 288, N-Methyl-1-[5-methyl-2-(5-morpholin-4-yl-3,4′-bipyridin-2′-yl)-1H-imidazol-4-yl]methanamine] | ≤ 500 | > 500 | –
16 | Cc1[nH]c(-c2cc(-c3cncc(N4CCOCC4)c3)ccn2)nc1CN(C)C [Example 289, N,N-Dimethyl-1-[5-methyl-2-(5-morpholin-4-yl-3,4′-bipyridin-2′-yl)-1H-imidazol-4-yl]methanamine] | ≤ 50 | > 500 | –
17 | COCCNCc1nc(-c2cc(-c3cncc(N4CCOCC4)c3)ccn2)[nH]c1C [Example 290, 2-Methoxy-N-{[5-methyl-2-(5-morpholin-4-yl-3,4′-bipyridin-2′-yl)-1H-imidazol-4-yl]methyl}ethanamine] | ≤ 100 | > 500 | –
18 | COCCCNCc1nc(-c2cc(-c3cncc(N4CCOCC4)c3)ccn2)[nH]c1C [Example 291, 3-Methoxy-N-{[5-methyl-2-(5-morpholin-4-yl-3,4′-bipyridin-2′-yl)-1H-imidazol-4-yl]methyl}propan-1-amine] | ≤ 50 | > 500 | –
19 | Cc1[nH]c(-c2cc(-c3cncc(N4CCOCC4)c3)ccn2)nc1CN1CCOCC1 [Example 292, 2′-[5-Methyl-4-(morpholin-4-ylmethyl)-1H-imidazol-2-yl]-5-morpholin-4-yl-3,4′-bipyridine] | ≤ 100 | ≤ 500 | –
20 | CC(=O)N1CCC(c2c[nH]c(-c3cc(-c4cnn(Cc5ccc(Cl)cc5)c4)ccn3)n2)C1 (stereo not shown) [Example 301, 2-[4-(1-Acetylpyrrolidin-3-yl)-1H-imidazol-2-yl]-4-[1-(4-chlorobenzyl)-1H-pyrazol-4-yl]pyridine trifluoroacetate salt] | > 500 | ≤ 500 | –
21 | O=S(=O)(c1ccccc1)N1CCC(c2c[nH]c(-c3cc(-c4cnn(Cc5ccc(Cl)cc5)c4)ccn3)n2)C1 (stereo not shown) [Example 302, 4-[1-(4-Chlorobenzyl)-1H-pyrazol-4-yl]-2-{4-[1-(phenylsulfonyl)pyrrolichn-3-yl]-1H-imidazol-2-yl}pyridine trifluoroacetate salt] | ≤ 500 | ≤ 500 | –
22 | CC(=O)N1CCC(c2c[nH]c(-c3cc(-c4cnn(Cc5ccc(Cl)cc5)c4)ccn3)n2)C1 (stereo not drawn) [Example 303, 2-[4-(1-Acetylpyrrolidin-3-yl)-1H-imidazol-2-yl]-4-[l-(4-chlorobenzyl)-1H-pyrazol-4-yl]pyridine trifluoroacetate salt] | > 500 | ≤ 500 | –
23 | O=S(=O)(c1ccccc1)N1CCC(c2c[nH]c(-c3cc(-c4cnn(Cc5ccc(Cl)cc5)c4)ccn3)n2)C1 (stereo not shown) [Example 305, 4-[1-(4-Chlorobenzyl)-1H-pyrazol-4-yl]-2-{4-[1-(phenylsulfonyl)pyrrolidin-3-yl]-1H-imidazol-2-yl}pyridine trifluoroacetate salt] | ≤ 500 | ≤ 500 | –
24 | COc1ccccc1Nc1nc(-c2cc(-c3cncc(N4CCOCC4)c3)ccn2)[nH]c1C [Example 307, N-(2-Methoxyphenyl)-5-methyl-2-(5-morpholin-4-yl-3,4′-bipyridin-2′-yl)-1H-imidazol-4-amine Trifluoroacetate Salt] | ≤ 50 | ≤ 500 | –
25 | Cc1[nH]c(-c2cc(-c3cncc(N4CCOCC4)c3)ccn2)nc1Nc1ccnnc1 [Example 308, N-[5-Methyl-2-(5-morpholin-4-yl-3,4′-bipyridin-2′-yl)-1H-imidazol-4-yl]pyridazin-4-amine trifluoroacetate salt] | ≤ 50 | ≤ 500 | –
